From patent US20080269526A1, “METHODS OF MAKING AN […]” (SAIC […], IP B.V., priority 2004, published 2008)

Assay: Solubility of K Rimar in water
Conditions: 20° C. (RT)
Excerpt: The solubility of the potassium salt of perfluorobutanesulfonic acid, K Rimar, is described in Table 2.

For `O=S(=O)([O-])C(F)(F)C(F)(F)C(F)(F)C(F)(F)F.[K+]` [K Rimar, Perfluorobutane sulfonate, potassium salt], which “Concentration at which K Rimar is soluble” value is on record?
The value was “less than 0.5 g”.
